The source of these data is EP1023836A1, “Compositions and methods for inhibiting the growth of fungi” (UNILEVER N.V., priority 1999, dated 2000).

What all share (format): cell-based
In assay [1] the test system is Zygosaccharomyces bailii G1. The assay is described as follows: Growth curves / growth inhibition of yeast strain G1. The conditions noted are these: comparative sugar 200 mM with 6 µM MB21, strain G1, 100 cells per ml; versus reference and MB21 alone (Fig. 5c). As for the experimental part: (§1) For examples 2, and 4-9 grow-curves were recorded at 25°C using a microbiology growth reader (Bioscreen C, ex Labsystems). For example 3, growth curve was determined as turbidity, measured by hand at a wave length of 660 nm (OD 660).
(§2) Three YEPD media were prepared, one without MB21, the other YEPD media contained 10 µM MB21 and 20 µM MB21, respectively. To these media β-gentiobiose was added in concentrations of 0, 50, 100 and 200 mM. The yeast strain SU50 was inoculated in these media in a concentration of 10 cells per ml, and cultivated in a 24 well plate at 25°C. Samples were taken from a 24 well plate at regular time intervals, diluted sixty times with distilled water and measured at 660 nm to construct the growth curves. […] However, if the sub-lethal concentrations of MB21 and β-gentiobiose are combined, a clear reduction in growth potential of SU50 (10 cells per ml) was observed.
(§3) In this example, three strains are grown in various media in the fashion of example 3, with the exception of being inoculated in the media in a concentration of 100 cells per ml. The sugars used are all comparatives: laminaribiose (β-1,3)-linked D-glucose), sucrose (having a 1,2 link), and sorbitol.
In this example, strain G1 was grown three media (see table 4) in the fashion of example 3, with the exception of being inoculated in the media in a concentration of 100 cells per ml. […]

In assay [2] the test system is Saccharomyces cerevisiae wild type strain SU-50. The assay is described as follows: Growth curves / growth inhibition of yeast strain SU-50. The following applies: for effect on growth: comparative sugar 25 mM with 25 µM MB21, strain SU50, 100 cells per ml, versus reference (no sugar, no MMAS) and MB21 alone (Fig. 5a). How it is done: as §1
(§4) • a) Saccharomyces cerevisiae strain SU52-pUR 5801 was grown in YNB and YEPD media, at 30°C with shaking at 225 rpm in an orbital incubator until a OD (660 nm) between 5 and 6 was reached. In parallel experiments several concentrations of β-gentiobiose or pustulan fragments were included in the media. After cultivation, the media were separated from the cells by centrifugation (10.000 x g for 15 mm at 4°C). The media were then filtered using 0.22 µM filters. Secretion of α-galactosidase-CWP2p was assessed by measuring α-galactosidase enzyme activity in the media (see further on). • b) Growth curves were obtained with the strain SU-50. The cells (about 10 per ml) were cultured in YEPD at 25°C in the presence or absence of β-gentiobiose or pustulan fragments and MB-21, by using a 24 well plate at room temperature with continuous shaking on a micro-titre plate shaker (mark 4) or a microbiology growth reader (Bioscreen C).
as §2
This example illustrates a relationship between the length of the β-(1,6)-glucan fragments and their effectiveness in competition. When the same concentration of MB21 (20 µM) was used [about 50 cells per ml] was used, a glucan fragment was obtained from pustulan with an average MW of 686, which was at least hundred times as effective as β-gentiobiose, as shown in Fig. 4.
as §3
In this example, strain SU 50 was grown three media (see table 2) in the fashion of example 3, with the exception of being inoculated in the media in a concentration of 100 cells per ml.

For assay [3], the system named is Zygosaccharomyces bailii ZB (NCYC 563). The assay is described as follows: Growth curves / growth inhibition of yeast strain ZB. The conditions noted are these: comparative sugar 200 mM with 6 µM MB21, strain ZB, 100 cells per ml; versus reference and MB21 alone (Fig. 5b). How it is done: as §1, §2, §3
In this example, strain ZB was grown three media (see table 3) in the fashion of example 3, with the exception of being inoculated in the media in a concentration of 100 cells per ml.

For assay [4], the system named is Saccharomyces cerevisiae strain SU52-pUR5801. The assay is described as follows: Cell wall protein release test (secretion of α-galactosidase-CWP2p fusion protein, α-galactosidase activity in the medium). The conditions noted are these: β-gentiobiose 10, 50 and 100 mM in YEPD with 5% galactose, 30 °C, 18 hours; linear up to 100 mM (Fig. 1). How it is done: as §4
α-Galactosidase activity was determined at 37°C using p-nitrophenyl α-D-galactopyranoside (PNPG) as substrate in 0.1 M potassium acetate buffer, pH 5.0. […] The extinction of the liberated p-nitrophenolate was recorded at 405 nm.
β-Gentiobiose was dissolved in YEPD media supplemented with 5% galactose, in concentrations of 10, 50 and 100 mM respectively. […] The enzyme activity of the fusion protein CWP2-α-galactosidase was measured as described in the α-galactosidase assay. […]

On to `OC[C@@H](O)[C@@H](O)[C@H](O)[C@@H](O)CO` [sorbitol], for which the effect on growth entry in assay [1], in assay [2] and in assay [3] was “stimulating effect” throughout.

Take `OC[C@H]1O[C@@H](OC[C@H]2O[C@@H](O)[C@H](O)[C@@H](O)[C@@H]2O)[C@H](O)[C@@H](O)[C@@H]1O` [β-Gentiobiose, 6-O-β-D-glucopyranosyl-β-D-glucose]: the “growth of SU-50” value in assay [2] (β-gentiobiose as such (0, 50, 100, 200 mM), no MB21, 10 cells per ml, 25°C, OD 660 (Fig. 3)) is “no influence”. The “release of the fusion protein α-galactosidase-CW2p from the cell wall” value in assay [4] was “concentration dependent”.

In the case of `OC[C@H]1O[C@@H](O[C@H]2[C@H](O)[C@@H](CO)OC(O)[C@@H]2O)[C@H](O)[C@@H](O)[C@@H]1O` (stereo partly drawn) [laminaribiose], in assay [2], the effect on growth entry is on record as “stimulating effect”.

Consider `OC[C@H]1O[C@@](CO)(O[C@H]2O[C@H](CO)[C@@H](O)[C@H](O)[C@H]2O)[C@@H](O)[C@@H]1O` [sucrose], for which the effect on growth result in assay [1], in assay [2] and in assay [3] was “stimulating effect” in each case.
